Experimental data taken from patent US7759331B2, “Pyridine-containing macroheterococylic compounds as kinase inhibitors” (Janssen Pharmaceutica NV, priority 2006, dated 2010).
“And” between values parts separate entries of the source, which are not always exact repeats. Equal values may be shown once.

Molecular target: GSK3β(h) (Homo sapiens, UniProt P49841)
Test: Glycogen Synthase Kinase-3 Assay
Type: biochemical
Conditions: assay run three times for each compound; each run's value listed
Procedure: Compounds were tested for the ability to inhibit GSK-3β protein. Briefly, in a final reaction volume of 25 μL, GSK-3β (h) (5-10 mU) was incubated with 8 mM MOPS pH 7.0, 0.2 mM EDTA, 20 μM […](p)EDEEE (phospho GS2 peptide), 10 mM Mg Acetate and [γ-^33P-ATP] (specific activity approx. 500 cpm/pmol, concentration as required). The reaction was initiated by the addition of the MgATP mix. After incubation for 40 minutes at room temperature, the reaction was stopped by the addition of 5 μL of a 3% phosphoric acid solution. 10 μL of the reaction was then spotted onto a P30 filtermat and washed three times for 5 minutes in 50 mM phosphoric acid and once in methanol prior to drying and scintillation counting.
The GSK-3β assay was run three times for each compound.

Sequence of GSK3β(h) (P49841 whole entry): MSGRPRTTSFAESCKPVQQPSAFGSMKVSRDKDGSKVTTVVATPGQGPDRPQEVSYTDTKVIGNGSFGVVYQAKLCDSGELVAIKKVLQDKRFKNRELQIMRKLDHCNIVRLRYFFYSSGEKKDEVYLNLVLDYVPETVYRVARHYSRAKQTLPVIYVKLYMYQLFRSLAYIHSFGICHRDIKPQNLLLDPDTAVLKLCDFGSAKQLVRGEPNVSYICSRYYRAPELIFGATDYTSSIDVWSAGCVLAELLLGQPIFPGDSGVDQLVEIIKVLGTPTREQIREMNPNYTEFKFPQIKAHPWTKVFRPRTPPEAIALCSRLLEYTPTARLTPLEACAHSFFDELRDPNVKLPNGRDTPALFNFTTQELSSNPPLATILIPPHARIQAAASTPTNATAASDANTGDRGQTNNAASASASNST

Row | IC50 | Structure (SMILES)
1 | 0.01 µM and 0.021 µM and 0.0535 µM | Cc1ccc(-c2cc3cc(n2)CCCn2cc(c4ccccc42)C2=C(C(=O)NC2=O)c2cn(c4ccccc24)CCC3)cc1 [Cpd 4, 20-(4-methylphenyl)-4,14,19,26-tetraazaheptacyclo[24.6.1.1^7,14.1^18,22.0^2,6.0^8,13.0^27,32]pentatriaconta-1(33),2(6),7(35),8,10,12,18(34),19,21,27,29,31-dodecaene-3,5-dione]
2 | 0.0055 µM and 0.0529 µM and 0.0521 µM | CN(C)c1nc2ccc1CCCn1cc(c3ccccc31)C1=C(C(=O)NC1=O)c1cn(c3ccccc13)CCC2 [Cpd 3, 31-(dimethylamino)-5,15,25,30-tetraazaheptacyclo[27.2.2.1^5,12.1^18,25.0^6,11.0^13,17.0^19,24]pentatriaconta-1(31),6,8,10,12(35),13(17),18(34),19,21,23,29,32-dodecaene-14,16-dione]
3 | 0.024 µM and 0.0193 µM and 0.0298 µM | O=C1NC(=O)C2=C1c1cn(c3ccccc13)CCCCc1ccc(c(N3CCCC3)n1)CCCCn1cc2c2ccccc21 [Cpd 5, 33-pyrrolidin-1-yl-6,16,26,32-tetraazaheptacyclo[29.2.2.1^6,13.1^19,26.0^7,12.0^14,18.0^20,25]heptatriaconta-1(33),7,9,11,13(37),14(18),19(36),20,22,24,31,34-dodecaene-15,17-dione]
